Results on 3 compounds are retold here after patent US12403147B2, “Treatment of ocular inflammation following ocular surgery” (Oculis Operations Sàrl, priority 2019, dated 2025).

The procedure of data set [1]:
For facilitating the interpretation of obtained results, the stress conditions of described studies should be converted to the condition of the currently running long term stability program for an eye drop formulation. For this purpose, the values of pH drop for stock formulations stored in glass containers from the study were compared with pH drop profile for a clinical batch stored at 25° C. in LDPE plastic containers without antioxidant (STS).

The conditions of data set [2]: 25° C.; cited from earlier work.

Values after ≈ are worked out from the molar mass of the structure shown.

As to DL-Tartaric acid, in data set [1], the “storage time during which the antioxidant can stabilize the formulation” value was “at least 1 year”. For `OC[C@H]1O[C@@H]2O[C@H]3[C@H](O)[C@@H](O)[C@@H](O[C@H]4[C@H](O)[C@@H](O)[C@@H](O[C@H]5[C@H](O)[C@@H](O)[C@@H](O[C@H]6[C@H](O)[C@@H](O)[C@@H](O[C@H]7[C@H](O)[C@@H](O)[C@@H](O[C@H]8[C@H](O)[C@@H](O)[C@@H](O[C@H]9[C@H](O)[C@@H](O)[C@@H](O[C@H]1[C@H](O)[C@H]2O)O[C@@H]9CO)O[C@@H]8CO)O[C@@H]7CO)O[C@@H]6CO)O[C@@H]5CO)O[C@@H]4CO)O[C@@H]3CO` [γ-cyclodextrin], in data set [2], the “solubility in pure water” value was 249.2 ± 0.2 mg/mL (≈ 192 mM). Turning to `OC[C@H]1O[C@@H]2O[C@H]3[C@H](O)[C@@H](O)[C@@H](O[C@H]4[C@H](O)[C@@H](O)[C@@H](O[C@H]5[C@H](O)[C@@H](O)[C@@H](O[C@H]6[C@H](O)[C@@H](O)[C@@H](O[C@H]7[C@H](O)[C@@H](O)[C@@H](O[C@H]1[C@H](O)[C@H]2O)O[C@@H]7CO)O[C@@H]6CO)O[C@@H]5CO)O[C@@H]4CO)O[C@@H]3CO` [α-cyclodextrin], in data set [2], the “solubility in pure water” value was 129.5 ± 0.7 mg/mL (≈ 133 mM).
